Test results as given in patent publication US20140314857A1, “FORMULATIONS FOR ENHANCED BIOAVAILABILITY OF ZANAMIVIR” (priority 2012, published 2014).
Several values for one entry are separate records, joined by “and”; a condition that tells them apart may be missing. Equal values may be shown once.

Assays:
[1] = Intravenous and intraduodenal bioavailability of zanamivir from three formulations (Example 5); settings: for C0: extrapolated to t = 0; for concentration at 0.25 hr / concentration at 0.5 hr / concentration at 0.83 hr / concentration at 1 hr / concentration at 1.5 hr / concentration at 2 hr / concentration at 0.033 hr / concentration at 0.083 hr: 1.5 mg/animal, Plasma concentration; for clearance: CL; for Vd: Vss
Description: (§1) Male Sprague-Dawley rats (Hilltop Labs), 3 animals per treatment group, 250-350 grams in weight, were fitted with a jugular vein cannula (JVC). Animals intended for intraduodenal dosing were also fitted with one or more intraduodenal cannula (IDC) and those intended for intravenous dosing were fitted with a second JVC. Food was withheld from the animals for a minimum of twelve hours prior to test article administration and was returned approximately four hours post-dose. Water was supplied ad libitum.
(§2) Intraduodenal doses composed of 1.5 mg of zanamivir and varying amounts of an enhancer (glycerol or Capmul MCM L8) were injected directly into the duodenum via the IDC. Intravenous dosing was conducted by the injection of 1.5 mg of zanamivir in 200 μL of PBS through a JVC. For some experiments, the absorption enhancer was administered intraduodenally 2 hr prior to administering 1.5 mg of zanamivir in PBS through a second IDC. Each intraduodenal dose was followed with the introduction of a small air bubble (˜10 μL) in the cannula followed by a flush of 125 μL of PBS to ensure the dose was given in full. The volume of PBS used for cannula flush was consistent across the treatment groups. The cannula was tied to prevent the PBS remaining in the cannula from entering the duodenum.
(§3) Blood samples collected via the JVC, approximately 400 μL each, were obtained at 2 min, 5 min, 15 min, 30 min, 60 min, 90 min, and 120 min, with sodium heparin used as an anti-coagulant. Each sample was placed into a chilled tube containing the anticoagulant and kept on ice until centrifugation at 4° C., 3,000×g, for 5 min. The plasma supernatants were stored at −70° C. until LC-MS analysis.
Dosing solution samples were assayed by LC-MS/MS using electrospray ionization. The chromatographic system consisted of Perkin Elmer series 200 micropumps and autosampler equipped with a Waters Atlantic® HILIC Silica 3 μM, 2.1×50 mm column. The mass spectrometer was a PE Sciex API 4000 with electrospray interface in multiple reaction monitoring mode. […] Stock solutions (1 mg/mL zanamivir) were prepared in water. Standards (eight concentrations) were prepared in the appropriate matched matrix (HBSSg or Sprague-Dawley rat plasma containing sodium heparin) and diluted 50-fold with methanol. Experimental samples were treated identically.
Standards and samples were prepared in Sprague Dawley rat plasma containing sodium heparin as an anticoagulant. An eight-point calibration curve was prepared at concentrations of 1000, 750, 500, 250, 100, 50, 25, and 10 ng/mL by serial dilution. Standard samples were treated identically to the study samples.
Plasma samples were extracted by protein precipitation in methanol.
In this example, the bioavailability of Zanamivir was evaluated after intravenous and intraduodenal doses in male Sprague-Dawley rats. The test compound was dosed at 1.5 mg/animal through intravenous and intraduodenal routes from different formulations. Plasma levels were determined by LC-MS/MS analysis. Pharmacokinetic parameters were estimated by a non-compartmental model using WinNonlin v4.1 software.

[2] = Varying zanamivir levels at fixed 50 µL Capmul MCM L8, intraduodenal administration; assay type: in vivo, male Sprague-Dawley rats; settings: male, Sprague-Dawley, rat, plasma, ID
Description: as §1
as §2, with “Intravenous” for “Intraduodenal doses composed of 1.5 mg of zanamivir and varying amounts of an enhancer (glycerol or Capmul MCM L8) were injected directly into the duodenum via the IDC. Intravenous”
as §3

[3] = IV 1.5 mg/animal, Normal Saline, Ex.5, individual rats
[4] = male, Sprague-Dawley, rat, in vivo, ID 1.5 mg/animal, Capmul MCM L8 50 µL, Ex.5, mean
[5] = male, Sprague-Dawley, rat, in vivo, ID 1.5 mg/animal, Glycerol 50 µL, individual rats
[6] = male, Sprague-Dawley, rat, in vivo, ID 1.5 mg/animal, Glycerol 50 µL, mean
[7] = male, Sprague-Dawley, rat, in vivo, ID 1.5 mg/animal, PBS 50 µL, mean
[8] = male, Sprague-Dawley, rat, in vivo, ID 1.5 mg/animal, PBS 50 µL, individual rats
[9] = male, Sprague-Dawley, rat, in vivo, ID 1.5 mg/animal, PBS, 50 µL blank glycerol -2 hr, individual rats
[10] = male, Sprague-Dawley, rat, in vivo, ID 1.5 mg/animal, PBS, 50 µL blank glycerol -2 hr, mean
[11] = male, Sprague-Dawley, rat, in vivo, iv, 1.5 mg, IV 1.5 mg/animal, Normal Saline, Ex.5, individual rats
[12] = male, Sprague-Dawley, rat, in vivo, iv, 1.5 mg, IV 1.5 mg/animal, Normal Saline, Ex.5, mean
[13] = male, Sprague-Dawley, rat, in vivo, iv, IV 1.5 mg/animal, Normal Saline, Ex.5, individual rats
[14] = male, Sprague-Dawley, rat, in vivo, iv, IV 1.5 mg/animal, Normal Saline, Ex.5, mean

SMILES: CC(=O)NC1C(NC(=N)N)C=C(C(=O)O)OC1C(O)C(O)CO (stereo not shown) [Zanamivir, 5-acetamido-4-guanidino-6-(1,2,3-trihydroxypropyl)-5,6-dihydro-4H-pyran-2-carboxylic acid]
- T1/2 ([1]; ID 1.5 mg/animal, Capmul MCM L8 50 µL, Ex.5, individual rats): 27 min and 33 min
- t1/2 ([1]; ID 1.5 mg/animal, PBS, 50 µL blank glycerol -2 hr, individual rats): 39.6 min and 110 min
- Plasma concentration ([1]; IV 1.5 mg/animal, Normal Saline, Ex.5, 0.083 hr, individual rats): 17900 ng/mL and 16300 ng/mL
- C0 [1, 3]: 26943 ng/mL and 32278 ng/mL
- CL [1, 3]: 7.83 mL/min/kg and 8.67 mL/min/kg
- Vss [1, 3]: 0.26 L/kg
- t1/2 [1, 3]: 27.6 min
- half-life ([1]; male, Sprague-Dawley, rat, in vivo, 1.5 mg, T1/2, ID 1.5 mg/animal, Capmul MCM L8 50 µL, Ex.5, individual rats): 28.2 min
- half-life ([1]; male, Sprague-Dawley, rat, in vivo, 1.5 mg, T1/2, ID 1.5 mg/animal, Capmul MCM L8 50 µL, Ex.5, mean): 29.4 min
- half-life ([1]; male, Sprague-Dawley, rat, in vivo, 1.5 mg, t1/2, ID 1.5 mg/animal, Glycerol 50 µL, individual rats): 17.4 min
- half-life ([1]; male, Sprague-Dawley, rat, in vivo, 1.5 mg, t1/2, ID 1.5 mg/animal, Glycerol 50 µL, mean): 17.4 min
- half-life ([1]; male, Sprague-Dawley, rat, in vivo, 1.5 mg, t1/2, ID 1.5 mg/animal, PBS 50 µL, individual rats): 49.8 min
- half-life ([1]; male, Sprague-Dawley, rat, in vivo, 1.5 mg, t1/2, ID 1.5 mg/animal, PBS 50 µL, mean): 49.8 min
- half-life ([1]; male, Sprague-Dawley, rat, in vivo, 1.5 mg, t1/2, ID 1.5 mg/animal, PBS, 50 µL blank glycerol -2 hr, mean): 74.4 min
- Tmax ([1]; male, Sprague-Dawley, rat, in vivo, 1.5 mg, ID 1.5 mg/animal, Glycerol 50 µL, mean): 30 min
- Tmax ([1]; male, Sprague-Dawley, rat, in vivo, 1.5 mg, ID 1.5 mg/animal, PBS 50 µL, individual rats): 30 min
- Tmax ([1]; male, Sprague-Dawley, rat, in vivo, 1.5 mg, ID 1.5 mg/animal, PBS 50 µL, mean): 30 min
- Tmax ([1]; male, Sprague-Dawley, rat, in vivo, 1.5 mg, ID 1.5 mg/animal, PBS, 50 µL blank glycerol -2 hr, mean): 34.8 min
- concentration at 0.25 hr [1, 4]: 4350 ng/mL
- concentration at 0.5 hr [1, 4]: 2910 ng/mL
- concentration at 0.83 hr [1, 4]: 7230 ng/mL
- concentration at 1 hr [1, 4]: 1080 ng/mL
- concentration at 1.5 hr [1, 4]: 578 ng/mL
- concentration at 2 hr [1, 4]: 274 ng/mL
- concentration at 0.25 hr [1, 5]: 1060 ng/mL
- concentration at 0.25 hr [1, 6]: 928 ng/mL
- concentration at 0.5 hr [1, 5]: 817 ng/mL
- concentration at 0.5 hr [1, 6]: 744 ng/mL
- concentration at 0.83 hr [1, 5]: 123 ng/mL
- concentration at 0.83 hr [1, 6]: 102 ng/mL
- concentration at 1 hr [1, 6]: 415 ng/mL
- concentration at 1.5 hr [1, 5]: 123 ng/mL
- concentration at 1.5 hr [1, 6]: 93 ng/mL
- concentration at 2 hr [1, 5]: 52.1 ng/mL
- concentration at 2 hr [1, 6]: 61 ng/mL
- concentration at 0.25 hr [1, 7]: 96 ng/mL
- concentration at 0.5 hr [1, 7]: 134 ng/mL
- concentration at 0.83 hr [1, 7]: 38.7 ng/mL
- concentration at 1 hr [1, 7]: 86.4 ng/mL
- concentration at 1.5 hr [1, 8]: 59.6 ng/mL
- concentration at 1.5 hr [1, 7]: 61.1 ng/mL
- concentration at 2 hr [1, 8]: 60.2 ng/mL
- concentration at 2 hr [1, 7]: 52.1 ng/mL
- concentration at 0.25 hr [1, 9]: 60.9 ng/mL
- concentration at 0.25 hr [1, 10]: 59.3 ng/mL
- concentration at 0.5 hr [1, 10]: 66.3 ng/mL
- concentration at 0.83 hr [1, 9]: 55.3 ng/mL
- concentration at 0.83 hr [1, 10]: 52.2 ng/mL
- concentration at 1 hr [1, 10]: 63.7 ng/mL
- concentration at 1.5 hr [1, 10]: 47.5 ng/mL
- concentration at 2 hr [1, 10]: 51.4 ng/mL
- bioavailability ([1]; male, Sprague-Dawley, rat, in vivo, inherent absolute bioavailability): < 2%
- C0 ([1]; male, Sprague-Dawley, rat, in vivo, iv, 1.5 mg, C0, IV 1.5 mg/animal, Normal Saline, Ex.5, individual rats): 33400 ng/mL
- C0 ([1]; male, Sprague-Dawley, rat, in vivo, iv, 1.5 mg, C0, IV 1.5 mg/animal, Normal Saline, Ex.5, mean): 30900 ± 3440 ng/mL
- clearance [1, 11]: 8.17 mL/min/kg
- clearance [1, 12]: 8.17 mL/min/kg
- Vd [1, 11]: 0.21 L/kg
- Vd [1, 12]: 0.24 ± 0.02 L/kg
- half-life ([1]; male, Sprague-Dawley, rat, in vivo, iv, 1.5 mg, t1/2, IV 1.5 mg/animal, Normal Saline, Ex.5, individual rats): 30.6 min
- half-life ([1]; male, Sprague-Dawley, rat, in vivo, iv, 1.5 mg, t1/2, IV 1.5 mg/animal, Normal Saline, Ex.5, mean): 29.4 ± 1.8 min
- Tmax [1, 11]: 0 min
- Tmax [1, 12]: 0 min
- concentration at 0.033 hr [1, 13]: 26900 ng/mL
- concentration at 0.033 hr [1, 14]: 24800 ng/mL
- concentration at 0.083 hr ([1]; male, Sprague-Dawley, rat, in vivo, iv, IV 1.5 mg/animal, Normal Saline, Ex.5, 0.083 hr, individual rats): 19400 ng/mL
- concentration at 0.083 hr ([1]; male, Sprague-Dawley, rat, in vivo, iv, IV 1.5 mg/animal, Normal Saline, Ex.5, 0.083 hr, mean): 17900 ng/mL
- concentration at 0.25 hr [1, 13]: 11700 ng/mL
- concentration at 0.25 hr [1, 14]: 11200 ng/mL
- concentration at 0.5 hr [1, 13]: 6610 ng/mL
- concentration at 0.5 hr [1, 14]: 6450 ng/mL
- concentration at 1 hr [1, 13]: 1650 ng/mL
- concentration at 1 hr [1, 14]: 2100 ng/mL
- concentration at 1.5 hr [1, 13]: 709 ng/mL
- concentration at 1.5 hr [1, 14]: 817 ng/mL
- concentration at 2 hr [1, 13]: 423 ng/mL
- concentration at 2 hr [1, 14]: 513 ng/mL
- Tmax ([2]; 0.75 mg zanamivir in 50 µL Capmul MCM L8): 4.8 min
- Tmax ([2]; 1.5 mg zanamivir in 50 µL Capmul MCM L8): 4.8 min
- Tmax ([2]; 3.0 mg zanamivir in 50 µL Capmul MCM L8): 8.4 min
